Measurements published in US20040197321A1, “Composition and method to prevent or reduce diarrhea and steatorrhea in HIV patients” (priority 2002, published 2004).
Entries after “also recorded” stand apart in the source; their conditions may differ. Counter-ions that a name gives are not always drawn. Like-named read-outs stand apart in the source and are kept apart here. Blank lines part the entries; values can stand above or below the compound they belong to.

Experiments:
[1] = molecular target: T1, USP Reference Standard Pancrelipase (Sus scrofa, UniProt P00591); experiment: Lipase assay (USP titrimetric): inhibition of pancrelipase at pH 9.0; assay type: biochemical
T1 sequence (P00591 1-450): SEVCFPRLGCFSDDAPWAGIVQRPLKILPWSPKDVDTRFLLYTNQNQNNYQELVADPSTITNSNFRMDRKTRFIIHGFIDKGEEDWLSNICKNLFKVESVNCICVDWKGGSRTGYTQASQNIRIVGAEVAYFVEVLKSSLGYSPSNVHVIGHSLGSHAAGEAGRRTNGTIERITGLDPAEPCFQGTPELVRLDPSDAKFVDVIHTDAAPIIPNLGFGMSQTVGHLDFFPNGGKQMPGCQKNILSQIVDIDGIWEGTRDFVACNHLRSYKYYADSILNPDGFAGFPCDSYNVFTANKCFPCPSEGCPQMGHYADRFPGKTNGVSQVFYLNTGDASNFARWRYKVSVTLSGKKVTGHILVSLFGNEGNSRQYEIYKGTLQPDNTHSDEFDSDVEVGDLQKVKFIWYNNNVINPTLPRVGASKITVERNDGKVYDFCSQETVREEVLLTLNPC
Method: (§1) The enzyme sources consisted of USP Reference Standard Pancrelipase, USP Reference Standard Trypsin, colipase (Sigma Chemical Co.), and enterokinase (ICN Biochemicals). Appropriate concentrations of enzyme reference standard were prepared in cold distilled water, as described in USP reference assay procedures. The Infectious Disease Clinic in Somerville, N.J. provided the HAART medications. Pure drugs could not be obtained so commercial drug preparations were used in the assays. […] Appropriate concentrations of HAART drug, drug cocktails, and excipients were prepared in distilled water and reagent-grade methanol (Aldrich, Milwaukee, Wis.) or DMSO (Aldrich, Milwaukee, Wis.).
One unit (U) of lipase activity is defined as the amount of enzyme that liberates one μequivalent of free fatty acid from triglycerides per minute at pH 9.0 and 37° C. Lipase activity (U/mg) was determined by a lipase specific titrimetric assay described in the United States Pharmacopeia (USP), Volume XXII. In brief, the substrate consists of 10% olive oil in acacia solution, 40-mg/mL sodium taurocholate, 0.075M calcium chloride, 0.05M Tris in 3.0M NaCl buffer solution (pH 7.5) and distilled water. The emulsified substrate is incubated at 37° C. and brought to pH 9.0 with 0.02N NaOH. At time zero, 1.0 mL of enzyme solution was added. A pH stat autotitrator was used to maintain pH 9.0 and the volume of 0.02 N NaOH dispensed per unit time was recorded for five (5) minutes. From the initial slope of this plot, lipase activity was calculated using the following equation:
U/mg=slope (mL of NaOH dispensed/min)×N of NaOH×1000 /mg of enzyme assayed
HAART drug solutions were mixed with the substrate prior to incubation and addition of enzyme.

[2] = molecular target: T2, pancrelipase (Sus scrofa, UniProt P00591); experiment: Pancrelipase reactivation by colipase; assay type: biochemical; conditions: for % Lipase Activity with Colipase: colipase 5 μg/mL
T2 construct: Sigma Chemical Co. (colipase)
T2 sequence (P00591 1-450): T1 sequence (P00591 1-450)
Method: Junge et al., described the procedure for the reactivation of lipase by colipase. In brief, the above lipase assay procedure was used with the following variation: colipase solution replaced the distilled water so the concentration of colipase in the final reaction mixture was 5 μg/mL.

[3] = molecular target: T3, USP Reference Standard Trypsin (Bos taurus, UniProt P00760); experiment: Trypsin assay (spectrophotometric); assay type: biochemical; conditions: NRTI; drug 2.1*10^-4M (Drug Tested 44-141 μg/mL); trypsin 7.6 μg/mL; 25° C.
T3 sequence (P00760 24-246): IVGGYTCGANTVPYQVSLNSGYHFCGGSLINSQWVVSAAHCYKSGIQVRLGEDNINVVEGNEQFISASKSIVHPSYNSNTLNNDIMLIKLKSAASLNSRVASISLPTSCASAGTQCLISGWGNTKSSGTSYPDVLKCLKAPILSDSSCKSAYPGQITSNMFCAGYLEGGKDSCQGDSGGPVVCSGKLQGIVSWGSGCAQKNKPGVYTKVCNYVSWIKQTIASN
Method: as §1, with “Appropriate” for “The enzyme sources consisted of USP Reference Standard Pancrelipase, USP Reference Standard Trypsin, colipase (Sigma Chemical Co.), and enterokinase (ICN Biochemicals). Appropriate”

[4] = system: HIV patients; conditions: Kakuda et al. 1998; cited from earlier work
[5] = system: pancrelipase; experiment: Recovery of pancrelipase activity after inhibition, by addition of excess lipase; assay type: biochemical
Method: The above procedure was used to monitor pancrelipase activity with the exception that drug was not preincubated with the substrate. At time zero 1.0 mL of pancrelipase was added to initiate the reaction. At five (5) minutes, 1.0 mL of HAART drug solution was added to the reaction mixture to cause inhibition of lipase activity. At twelve (12) minutes an additional 1.0 mL of pancrelipase was added to the reaction mixture to overcome HAART inhibition. The reaction was monitored for twenty (20) minutes.

[6] = pH 9.0, read-out: IC50 for inhibitors of pancrelipase (converted)

Compound: CC(C)(C)NC(=O)[C@@H]1C[C@@H]2CCCC[C@@H]2CN1C[C@@H](O)[C@H](Cc1ccccc1)NC(=O)[C@H](CC(N)=O)NC(=O)c1ccc2ccccc2n1 [FORTOVASE ®, Saquinavir]
IC50 ([1]; IC50 for inhibitors of pancrelipase, pH 9.0): 3230 µM

Compound: CCCCCCCCCCC[C@@H](C[C@@H]1OC(=O)[C@H]1CCCCCC)OC(=O)[C@H](CC(C)C)NC=O [ORLISTAT, Orlistat, reference compound]
effect of added colipase on the inhibition of pancrelipase (in words) [2]: no effect
% Lipase Activity No Colipase ([2]; Drug Conc. 0.002 mg/mL): 37%
% Lipase Activity with Colipase ([2]; Drug Conc. 0.002 mg/mL): 29%

Compound: Cc1c(O)cccc1C(=O)N[C@@H](CSc1ccccc1)[C@H](O)CN1C[C@H]2CCCC[C@H]2C[C@H]1C(=O)NC(C)(C)C [VIRACEPT ®, Nelfinavir mesylate]
IC50 [1, 6]: 780 µM

Compound: Nc1ccn([C@H]2CC[C@@H](CO)O2)c(=O)n1 [Zalcitabine USP Ref. STND, 2′,3′-Dideoxycytidine]
Inhibition of Tryspin [3]: 0%

Compound: Cc1c(O)cccc1C(=O)N[C@@H](CSc1ccccc1)[C@H](O)CN1C[C@H]2CCCC[C@H]2C[C@H]1C(=O)NC(C)(C)C [nelfinavir, 2-[2′-hydroxy-3′-phenylthiomethyl-4′-aza-5′-oxo-5′-(2″-methyl-3″-hydroxyphenyl)pentyl]decahydroisoquinoline-3-N-t-butyl-carboxamide]
HIV patients who experience diarrhea [4]: 12-20%

Compound: D-α-tocopheryl polyethylene glycol 1000 succinate [TPGS]
inhibition of pancrelipase (in words) [1]: significantly inhibited; also recorded: significant inhibition
IC50 for inhibitors of pancrelipase ([1]; pH 9.0): 275 µg/mL
% Inhibition of Pancrelipase ([1]; pH 9.0, Wt % Excipient in Source Used 0.2): 6%
% Inhibition of Pancrelipase ([1]; pH 9.0, Wt % Excipient in Source Used 0.5): 43%
% Inhibition of Pancrelipase ([1]; pH 9.0, Wt % Excipient in Source Used 1): 79%
% Inhibition of Pancrelipase ([1]; pH 9.0, Wt % Excipient in Source Used 2): 93%
% Inhibition of Pancrelipase ([1]; pH 9.0, Wt % Excipient in Source Used 4): 95%
% Inhibition of Pancrelipase ([1]; pH 9.0, Wt % Excipient in Source Used 20): 96%
IC50 [1, 6]: 182 µM
effect of added colipase on the inhibition of pancrelipase (in words) [2]: reversed; also recorded: restored pancrelipase activity
% Lipase Activity No Colipase ([2]; Drug Conc. 10.0 mg/mL): 21%
% Lipase Activity with Colipase ([2]; Drug Conc. 10.0 mg/mL): 79%
effect of addition of excess lipase on the inhibition of pancrelipase (in words) [5]: can be overcome
% Reactivation of Pancrelipase ([5]; after addition of excess lipase (additional 1.0 mL pancrelipase at 12 minutes)): 98%
% Pancrelipase Activity ([5]; drug inhibited, before addition of excess lipase): 55%

% Inhibition of Pancrelipase ([1]; pH 9.0, Wt % Excipient in Source Used 50): 20%
Compound: Vitamin E
